The values below are quoted from earlier work in patent US8791152B2, “Stable pharmaceutical composition containing docetaxel and a method of manufacturing the same” (SK Chemicals Co., Ltd., priority 2006, dated 2014).

Molecules are shown by their SMILES.

Regarding `CC(=O)O[C@@]12CO[C@@H]1C[C@H](O)[C@@]1(C)C(=O)[C@H](O)C3=C(C)[C@@H](OC(=O)[C@H](O)[C@@H](NC(=O)OC(C)(C)C)c4ccccc4)C[C@@](O)([C@@H](OC(=O)c4ccccc4)[C@H]21)C3(C)C` [Docetaxel, docetaxel], the Solubility in water entry is on record as “almost insoluble in water”.
